Earlier results, collected in US20220370477A1, “Solid Oral Dosage Forms Of Dexamethasone” (Jubilant Generics Limited, priority 2021, published 2022).
“Also recorded” adds a separate entry of the source. Read-outs that look alike come from different tables or passages of the source.

Solubility (in acetone): sparingly soluble | Solubility (in dichloromethane): slightly soluble | Solubility (in ethanol): sparingly soluble | Solubility (in methanol): sparingly soluble
Compound: C[C@@H]1C[C@H]2[C@@H]3CCC4=CC(=O)C=C[C@]4(C)[C@@]3(F)[C@@H](O)C[C@]2(C)[C@@]1(O)C(=O)CO [Dexamethasone, 9-fluoro-11β,17,21trihydroxy-16α-methylpregna-1,4-diene-3 ,20-dione]
Solubility (in water): practically insoluble; also recorded: poorly water-soluble
